The record followed here is patent US9365522B2, “Pyrazole amide derivative” (AMGEN INC., priority 2015, dated 2016).

In the test the target is T1, human RORγ-LBD (Homo sapiens, UniProt P51449).
T1 construct: made in house; host or cells: E. coli (BL-21)
T1 sequence (P51449 262-518): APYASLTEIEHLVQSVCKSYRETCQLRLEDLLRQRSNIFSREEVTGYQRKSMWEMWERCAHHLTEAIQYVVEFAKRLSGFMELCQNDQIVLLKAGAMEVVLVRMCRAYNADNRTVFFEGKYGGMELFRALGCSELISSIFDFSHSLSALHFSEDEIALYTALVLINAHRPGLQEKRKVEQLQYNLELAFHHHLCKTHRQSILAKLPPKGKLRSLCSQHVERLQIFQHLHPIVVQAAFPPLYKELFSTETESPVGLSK
Description: ROR gamma coactivator peptide recruitment Alphascreen assay (RORγ-LBD binding to GRIP1 coactivator peptide). The test is classed as biochemical. The following applies: 5 nM human RORγ-LBD, 30 nM 7-β-hydroxycholesterol, 50 nM biotinylated GRIP1 coactivator peptide, overnight incubation at room temperature; read-out: result (pIC50, RORγ coactivator peptide recruitment Alphascreen assay) (converted). The source says:
Alphascreen™ is a bead-based amplified homogenous luminescent proximity assay that can be used for measuring the effect of compounds on protein-protein interactions. When biological interactions bring donor and acceptor beads into close proximity, reactive oxygen, generated upon laser excitation of the donor beads, initiates a luminescence/fluorescence cascade in the acceptor beads that leads to a highly amplified signal that can be measured as light in the 520-620 nm range. When the acceptor and donor beads are not in proximity, the reactive oxygen decays and only a very low background signal is generated.
An in vitro assay to assess inhibition of RORγ binding to the coactivator GRIP1 was established using Alphascreen™ technology. The interaction between nuclear receptors (NR) and coactivator proteins is a key step in signal transduction from the receptor to the transcriptional machinery and can be measured in vitro using only the ligand binding domain of the nuclear receptor and a peptide containing a coactivator protein LXXLL nuclear receptor binding motif
For the RORγ construct used in the coactivator recruitment assay, nucleotides corresponding to the ligand binding domain (LBD) of wild type human RORγ (amino acids 262-518 of Genbank Accession No. NM_005060.3) were cloned into the pET24 expression vector (Novagen), downstream of in-frame N-terminal 6×His and Flag tag sequences. Recombinant 6×His:Flag-tagged human RORγ-LBD protein was expressed in E. coli (BL-21) and purified by affinity chromatography on a nickel Sepharose column, followed by anion exchange chromatography.
A 4× assay mixture of 6×His:Flag-tagged human RORγ-LBD with the agonist ligand 7-β-hydroxycholesterol was prepared in assay buffer (50 mM HEPES pH 7.4, BSA 0.05%, 150 mM NaCl, 5 mM MgCl2, 1 mM DTT, 0.01% Tween-20). For control wells a 4× mixture of 6×His:Flag-tagged human ROR gamma LBD alone was also prepared.
A 4× stock of biotinylated coactivator peptide containing the LXXLL motif from GRIP1 (Biotin-[…]) was prepared in assay buffer.
A 4×detection mixture of nickel chelate Alphascreen™ acceptor beads (PerkinElmer) and streptavidin Alphascreen™ donor beads (PerkinElmer) was prepared in assay buffer.
Compounds to be tested were arranged in a pre-dose 384-well mother plate serially diluted 1 in 2 over 22 columns, in 100% DMSO, at 40× the final test concentration, from a high concentration of 4 mM. DMSO with no compound was placed in control columns. The compounds were robotically dispensed directly into assay plates containing assay buffer to a 4× final test concentration.
Following compound addition, the 6×His:Flag-tagged human RORγ-LBD plus 7-β-hydroxycholesterol assay mixture, biotinylated coactivator peptide and detection mixture were added. Final assay conditions were 5 nM 6×His:Flag-tagged human RORγ-LBD, 30 nM 7-β-hydroxycholesterol, 50 nM biotinylated coactivator peptide, 2.5 ug/ml nickel acceptor beads and 10 ug/ml streptavidin donor beads. The final concentration of DMSO in the assay was 2.5%.
After overnight incubation at room temperature plates were read on and Envision™ plate reader (PerkinElmer).
Data was plotted and pIC50 values were calculated using the Genedata Screener™ data analysis suite (Genedata).
(In general: Alpha assays give light when donor and acceptor beads are brought close together.)
As to `Cc1cc(Cl)c(CCN(CC(C)(C)C)C(=O)c2cnn([C@H]3CC[C@](C)(C(=O)O)CC3)c2C(F)(F)F)c(Cl)c1` [Example 515, trans-4-(4-((2-(2,6-dichloro-4-methylphenyl)ethyl)(2,2-dimethylpropyl)carbamoyl)-5-(trifluoromethyl)-1H-pyrazol-1-yl)-1-methylcyclohexanecarboxylic acid], the IC50 is 4.68 nM.

For the compound `Cc1cc(Cl)c(C(=O)CN(CC(C)(C)C)C(=O)c2cnn([C@H]3CC[C@H](C(=O)O)CC3)c2C(F)(F)F)c(Cl)c1` [Example 517, trans-4-(4-((2-(2,6-dichloro-4-methylphenyl)-2-oxoethyl)(2,2-dimethylpropyl)carbamoyl)-5-(trifluoromethyl)-1H-pyrazol-1-yl)cyclohexanecarboxylic acid], the IC50 is 25.1 nM.

Turning to `Cc1cc(Cl)c(C(=O)CN(CC2CCC3(CC2)CC3)C(=O)c2cnn([C@H]3CC[C@H](C(=O)O)CC3)c2C(F)(F)F)c(Cl)c1` [Example 518, trans-4-(4-((2-(2,6-dichloro-4-methylphenyl)-2-oxoethyl)(spiro[2.5]oct-6-ylmethyl)carbamoyl)-5-(trifluoromethyl)-1H-pyrazol-1-yl)cyclohexanecarboxylic acid], the IC50 is 2.63 nM.

Regarding `Cc1cc(Cl)c(C(=O)CN(CC2(C)CCCCC2)C(=O)c2cnn([C@H]3CC[C@H](C(=O)O)CC3)c2C(F)(F)F)c(Cl)c1` [Example 519, trans-4-(4-((2-(2,6-dichloro-4-methylphenyl)-2-oxoethyl)((1-methylcyclohexyl)methyl)carbamoyl)-5-(trifluoromethyl)-1H-pyrazol-1-yl)cyclohexanecarboxylic acid], the IC50 is 5.13 nM.

Regarding `Cc1cc(Cl)c(C(=O)CN(CC2CC(C)(C)C2)C(=O)c2cnn([C@H]3CC[C@H](C(=O)O)CC3)c2C(F)(F)F)c(Cl)c1` [Example 520, trans-4-(4-((2-(2,6-dichloro-4-methylphenyl)-2-oxoethyl)((3,3-dimethylcyclobutyl)methyl)carbamoyl)-5-(trifluoromethyl)-1H-pyrazol-1-yl)cyclohexanecarboxylic acid], the IC50 was 2.51 nM.

Regarding `CC1(C)CC(CN(CC(=O)c2c(Cl)cccc2Cl)C(=O)c2cnn([C@H]3CC[C@H](C(=O)O)CC3)c2C(F)(F)F)C1` [Example 521, trans-4-(4-((2-(2,6-dichlorophenyl)-2-oxoethyl)((3,3-dimethylcyclobutyl)methyl)carbamoyl) 5-(trifluoromethyl)-1H-pyrazol-1-yl)cyclohexanecarboxylic acid], the IC50 was 1.86 nM.

Take `Cc1cc(Cl)c(C(=O)CN(Cc2cc(F)c(C(F)(F)F)c(F)c2)C(=O)c2cnn([C@H]3CC[C@H](C(=O)O)CC3)c2C(F)(F)F)c(Cl)c1` [Example 522, trans-4-(4-((2-(2,6-dichloro-4-methylphenyl)-2-oxoethyl)(3,5-difluoro-4-(trifluoromethyl)benzyl)carbamoyl)-5-(trifluoromethyl)-1H-pyrazol-1-yl)cyclohexanecarboxylic acid]: the IC50 was 2.09 nM.

As to `CC(C)(C)CN(CCc1c(Cl)cccc1Cl)C(=O)c1cnn([C@H]2CC[C@H](C(=O)O)CC2)c1C(F)(F)F` [Example 523, trans-4-(4-((2-(2,6-dichlorophenyl)ethyl)(2,2-dimethylpropyl)carbamoyl)-5-(trifluoromethyl)-1H-pyrazol-1-yl)cyclohexanecarboxylic acid], the IC50 was 8.71 nM.

Turning to `CC(C)(C)CN(C[C@H](O)c1c(Cl)cccc1Cl)C(=O)c1cnn([C@H]2CC[C@H](C(=O)O)CC2)c1C(F)(F)F` [Example 524, trans-4-(4-(((2R)-2-(2,6-dichlorophenyl)-2-hydroxyethyl)(2,2-dimethylpropyl)carbamoyl)-5-(trifluoromethyl)-1H-pyrazol-1-yl)cyclohexanecarboxylic acid], the IC50 is 77.6 nM.

Take `CC1(C)CCC(N(CC(=O)c2c(Cl)cccc2Cl)C(=O)c2cnn([C@H]3CC[C@H](C(=O)O)CC3)c2C(F)(F)F)CC1` [Example 525, trans-4-(4-((2-(2,6-dichlorophenyl)-2-oxoethyl)(4,4-dimethylcyclohexyl)carbamoyl)-5-(trifluoromethyl)-1H-pyrazol-1-yl)cyclohexanecarboxylic acid]: the IC50 is 5.89 nM.

`O=C(c1cnn([C@H]2CC[C@H](C(=O)O)CC2)c1C(F)(F)F)N(CCc1c(Cl)cccc1Cl)Cc1ccc(C(F)(F)F)cc1` [Example 526, trans-4-(4-((2-(2,6-dichlorophenyl)ethyl)(4-(trifluoromethyl)benzyl)carbamoyl)-5-(trifluoromethyl)-1H-pyrazol-1-yl)cyclohexanecarboxylic acid]: the IC50 was 5.89 nM.

Turning to `O=C(CN(Cc1ccc(C(F)(F)F)cc1)C(=O)c1cnn([C@H]2CC[C@H](C(=O)O)CC2)c1C(F)(F)F)c1c(Cl)cccc1Cl` [Example 527, trans-4-(4-((2-(2,6-dichlorophenyl)-2-oxoethyl)(4-(trifluoromethyl)benzyl)carbamoyl)-5-(trifluoromethyl)-1H-pyrazol-1-yl)cyclohexanecarboxylic acid], the IC50 is 8.32 nM.

As for `Cc1cc(Cl)c(C(=O)CN(Cc2ccc(C(F)(F)F)cc2)C(=O)c2cnn([C@H]3CC[C@H](C(=O)O)CC3)c2C(F)(F)F)c(Cl)c1` [Example 528, trans-4-(4-((2-(2,6-dichloro-4-methylphenyl)-2-oxoethyl)(4-(trifluoromethyl)benzyl)carbamoyl)-5-(trifluoromethyl)-1H-pyrazol-1-yl)cyclohexanecarboxylic acid], the IC50 was 4.17 nM.

Regarding `CO[C@H](CN(CC(C)(C)C)C(=O)c1cnn([C@H]2CC[C@H](C(=O)O)CC2)c1C(F)(F)F)c1c(Cl)cc(C)cc1Cl` [Example 530, trans-4-(4-(((2S)-2-(2,6-dichloro-4-methylphenyl)-2-methoxyethyl)(2,2-dimethylpropyl)carbamoyl)-5-(trifluoromethyl)-1H-pyrazol-1-yl)cyclohexanecarboxylic acid], the IC50 was 51.3 nM.

Take `CO[C@@H](CN(CC(C)(C)C)C(=O)c1cnn([C@H]2CC[C@H](C(=O)O)CC2)c1C(F)(F)F)c1c(Cl)cc(C)cc1Cl` [Example 531, trans-4-(4-(((2R)-2-(2,6-dichloro-4-methylphenyl)-2-methoxyethyl)(2,2-dimethylpropyl)carbamoyl)-5-(trifluoromethyl)-1H-pyrazol-1-yl)cyclohexanecarboxylic acid]: the IC50 is 1070 nM.

As for `Cc1cc(Cl)c(C(=O)CN(CC2CCC(C)(C)CC2)C(=O)c2cnn([C@H]3CC[C@](C)(C(=O)O)CC3)c2C(F)(F)F)c(Cl)c1` [Example 532, trans-4-(4-((2-(2,6-dichloro-4-methylphenyl)-2-oxoethyl)((4,4-dimethylcyclohexyl)methyl)carbamoyl)-5-(trifluoromethyl)-1H-pyrazol-1-yl)-1-methylcyclohexanecarboxylic acid], the IC50 was 7.41 nM.

Consider `Cc1cc(Cl)c(C(=O)CN(CC2CCCCC2)C(=O)c2cnn([C@H]3CC[C@](C)(C(=O)O)CC3)c2C(F)(F)F)c(Cl)c1` [Example 533, trans-4-(4-((cyclohexylmethyl)(2-(2,6-dichloro-4-methylphenyl)-2-oxoethyl)carbamoyl)-5-(trifluoromethyl)-1H-pyrazol-1-yl)-1-methylcyclohexanecarboxylic acid], for which the IC50 is 1.48 nM.

Consider `CC1(C)CCC(N(CCc2c(Cl)cccc2Cl)C(=O)c2cnn([C@H]3CC[C@H](C(=O)O)CC3)c2C(F)(F)F)CC1` [Example 534, trans-4-(4-((2-(2,6-dichlorophenyl)ethyl)(4,4-dimethylcyclohexyl)carbamoyl)-5-(trifluoromethyl)-1H-pyrazol-1-yl)cyclohexanecarboxylic acid], for which the IC50 is 7.94 nM.
